Our source for the inhibition, zone of inhibition and Activity values is ChEMBL document CHEMBL1151334, “Arugosin F: a new antifungal metabolite from the coprophilous fungus Ascodesmis sphaerospora” (1998).

Type in all cases: functional
The subject of one assay is Ascobolus. Description: Antifungal activity against Ascobolus furfuraceus NRRL 6460 at 200 ug/disk by paper disk assay.
A further assay deals with Bacillus subtilis. Put plainly: Antibacterial activity against Bacillus subtilis ATCC 6051 at 200 ug/disk by standard disk assay. The note with it: read-out: IZ.
The test system of another assay is Sordaria fimicola. Description: Antifungal activity against Sordaria fimicola NRRL 6459 at 200 ug/disk by paper disk assay.
A further assay deals with Staphylococcus aureus. Put plainly: Antibacterial activity against Staphylococcus aureus ATCC 29213 at 200 ug/disk by standard disk assay. The note with it: read-out: IZ.

As usually defined, the inhibition is the share of the control response that was lost under treatment. The low end stands for little suppression, the high end for strong suppression.

For the compound `Cc1cc(CO)c2c(=O)c3c(O)cccc3oc2c1`, the inhibition at 200 µg/disc in the assay on Ascobolus came out at 20%. Besides, the zone of inhibition at 200 µg/disc in the assay on Bacillus subtilis was 7 mm. This compound yielded an Activity in the assay on Sordaria fimicola of 33%.

As to `Cc1cc(O)c2c(c1)C(O)Oc1cccc(O)c1C2=O` (configuration not stated) [ARUGOSIN F], the zone of inhibition at 200 µg/disc with Staphylococcus aureus was found to be 7 mm; with Bacillus subtilis, 15 mm. The compound further had an inhibition at 200 µg/disc in the assay with Ascobolus of 100%. The Activity with Sordaria fimicola came to 50%.
